This note sets out measurements from patent publication EP0981362B1, “USE OF GLP-2 AGONISTS ENHANCING F[…] THE UPPER GASTROINTESTINAL TRACT” (1149336 ONTARIO INC., priority 1997, dated 1998).

In this data set the test system is female CD1 mice. Briefly: Indomethacin-induced mortality in mice (model dose). The format is in vivo. The settings on record: indomethacin 7 mg/kg s.c. bid for two days following overnight fasting; 7-8 week old female CD1 mice; saline-treated control animals. On the procedure: Indomethacin(1-[p-chlorobenzoyl]-5-methoxy-2-methylindole-3-acetic acic) (Sigma Chemical Co., St Louis MO, lot 74H1212), stock solution was prepared and aliquoted 1 hr before the first injection. The mice were weighed, and then fasted overnight, and given food one hour prior to the first indomethacin injection. Mice were not fasted for the second indomethacin injection. Indomethacin (14.5 mg) was weighed out using a Mettler AE166 scale and dissolved in 1 mL anhydrous ethyl alcohol. The solution was warmed at 37° C for 5 minutes and thoroughly vortexed every minute until fully dissolved. 998.1 uL of stock indomethacin solution was diluted in 41 ml 5% NaHCO3 pH 7.3. […] Indomethacin used in the second injection was stored at -20° C overnight and allowed to thaw at room temperature prior to injection. Mice were injected at the same time (10:00 AM) on both days approximately 1 hr after receiving h[Gly^2]-GLP-2. Animals not receiving indomethacin were administered vehicle alone (250 µl anhydrous ethyl alcohol in 10.5 mL NaHCO3 pH 7.3 - a final injection volume of 0.5 ml was given daily over 2 days). Animals were sacrificed in a CO2 chamber 14 days following the administration of either PBS or h[Gly^2]-GLP-2.
Pilot experiments were performed to determine an indomethacin dose that reproducibly produced ∼ 50% mortality in mice. […]

Consider `COc1ccc2c(c1)c(CC(=O)O)c(C)n2C(=O)c1ccc(Cl)cc1` [indomethacin, 1-[p-chlorobenzoyl]-5-methoxy-2-methylindole-3-acetic acic], for which the mortality is 50%.

In general, mortality refers to the percentage killed.
